Tests used:
[1] = BIACORE epitope mapping with antiserum of chinchillas immunized with native IHF; type: binding, chinchilla; details: BIACORE biosensor
Description: (§1) To test this hypothesis, additional cohorts of chinchillas were immunized with either native full length IHF from E. coli (obtained from Nash) or with native full length IHF from E. coli (obtained from Nash) that had been complexed to an excess of double stranded DNA in order to best mimic how it would be presented in nature.

NTHI strain 86-028NP = system: NTHI strain 86-028NP
Procedure: 48 adults were ordered from Rauscher's Chinchilla Ranch (LaRue, Ohio) and were acclimated to the vivarium for 7-10 days prior to the beginning of the study. Prior to TB [transbullar or direct challenge into the middle ear cavity] challenge, baseline otoscopy and tympanometry were performed as well as a limited volume prebleed to collect serum. Chinchillas were anesthetized and 300 μl of NTHI (strain #86-028NP) suspension containing approximately 1000 cfu were introduced into the middle ear space via transbullar challenge. Animals were allowed to recover, then monitored daily for adverse reactions as per IACUC accepted animal use protocols. Routine otoscopy and tympanometry were performed every 2-3 days throughout the study.
Four days after challenge (day +4), chinchillas were anesthetized and a CT scan was performed to visualize biofilms present within the middle ear and to obtain pre-immunization images. The surface of the pinnae were cleaned and hydrated by wiping with a sterile gauze pad moistened with sterile pyrogen free saline. After ˜2 minutes (to allow the pinnae to dry), 50 μl of either the dmLT, IHF (purified E. coli IHF according to Experiment 1)+dmLT, or IHF+rsPiLA+dmLT solution will be added to the pinna and gently massaged in. Three chinchillas per cohort were sacrificed and tissues/samples collected (on days +4, and +11) to begin to determine mechanism of action.
Eleven days after challenge (day +11), the secondary immunization occurred as described above wherein the pinnae are cleaned/hydrated and immunogens were topically administered. Three chinchillas per cohort were sacrificed and tissues/samples collected to begin to determine mechanism of action.
Eighteen days after challenge (day +18), chinchillas were anesthetized and a CT scan were performed to identify any biofilms present, as well as to compare to the pre-immunization CT scans. The animals were then bled to collect serum and euthanized. […] Images were collected and the bulla were washed with 1 ml of sterile saline and re-imaged. The mucosa, along with any biofilm present, were collected from the right bulla and placed in a preweighed tube. These tissues were homogenized, serially diluted, and plated to determine cfu NTHI/mg wet weight tissue. The left bullae were filled with OCT compound and snap frozen for histological analysis.
Images of the left and right middle ear cavities, with resident biofilms, were scrambled and two images per animal were compiled into a single file for ranking by blinded evaluators. The relative amount of biomass remaining within the middle ear of each animal was ranked on a 0 to 4+ scale by blinded reviewers using the scale shown in Table 6 below. Titer ELISAs, cytokine arrays, and Biacore were run on the serum as well as on the collected middle ear effusions. The OCT embedded middle ears were sectioned and stained either for basic morphology and architecture (H&E) or for the presence of IHF using immunohistochemistry and/or immunofluorescence.
For the second animal immunization study, twenty adult chinchillas (body mass between 500-700 g), shown to have no evidence of middle ear disease by tympanometry and video otoscopy, were enrolled and divided into four cohorts of 5 animals each. All animals were again challenged transbullarly with approximately 1000 CFU NTHI strain 86-028NP per bulla. Four days later, after a biofilm formed in the middle ear cavities of these animals, they were immunized by a transcutaneous route (TCI) as described above. Formulations consisted of either: 10 μg IHF admixed with 10 μg dmLT, 10 μg IHF that had been pre-bound to DNA+dmLT, DNA+dmLT, or 10 μg dmLT alone.
Middle ears were again subsequently scored from 0 to 4+ for disease severity upon completion of the study.

IHF = target: T1, IHF (Escherichia coli, UniProt P0A6X7+P0A6Y1); assay: antibody response after subcutaneous immunization of chinchillas (Western blot, ELISA); type: in vivo, E. coli; details: chinchilla
T1 construct: IHF promoter purified from E. coli K12 (the full length combination of both IHF subunits); made in house; host or cells: E. coli overproducing strains (lambda PL promoter plasmids, e.g. K5746 / E738)
Description: Each animal received a priming dose followed by two identical boosts delivered at 30-day intervals.

dsDNA = details: DNA (10 μM) to IHF (5 μM); FIG. 11
Procedure: Middle ears were again subsequently scored from 0 to 4+ for disease severity upon completion of the study. To better assure that the IHF and DNA remained in complex for immunization, synthetic oligonucleotides identical to those used in the published co-crystallization study (see for e.g., Rice et al. (1996) Cell 87(7): 1295-1306) of a high affinity IHF binding site from the bacteriophage lambda recombination site attP at a molar ratio of 2:1 [DNA (10 μM) to IHF (5 μM)] was used.

NTHI biofilms = assay: synergism on pre-formed NTHI biofilms (FIGS. 14A-14C); type: cell-based
Procedure: To this end the ability to induce augmented structural destabilization of pre-formed NTHI biofilms was assessed when a sub-optimal concentration of anti-IHF was used along with one of each of three unique reagents.

[2] = BIACORE epitope mapping with antiserum of chinchillas immunized with IHF pre-complexed to DNA; type: binding, chinchilla; details: BIACORE biosensor
Description: as §1

Staphylococcus aureus HU = Staphylococcus aureus HU (Staphylococcus aureus, UniProt Q5HFV0); details: cited from earlier work
[3] = target: Haemophilus influenzae IHF (Haemophilus influenzae, UniProt P43723); details: also known as IhfA5; cited from earlier work
[4] = first study, transcutaneous immunization
[5] = amoxicillin 64 μg/ml, IHF antisera 1:50 dilution

T1 sequence (P0A6X7 2-99): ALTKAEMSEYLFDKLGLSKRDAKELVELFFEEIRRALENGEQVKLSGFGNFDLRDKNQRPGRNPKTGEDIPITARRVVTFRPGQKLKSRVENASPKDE
T1 sequence (P0A6Y1 whole entry): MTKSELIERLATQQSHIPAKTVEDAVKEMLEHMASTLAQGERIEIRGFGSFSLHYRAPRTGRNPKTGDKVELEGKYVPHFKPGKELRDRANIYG

RGFGSFSLHHRQPRLGRNPK (listed as Haemophilus influenzae) [B4, 46 to 65 of IHF]
immune recognition of 20-mer peptides [1]: greatest immune recognition

RPGRNPKTGDVVPVSARRVV (listed as Haemophilus influenzae) [A5, amino acids 61 to 80 of IHF]
immune recognition of 20-mer peptides [1]: greatest immune recognition

E. coli IHF: purified E. coli integration host factor, full length combination of both subunits, used as immunogen with adjuvant
mean score for remaining biomass within the middle ears (NTHI strain 86-028NP; first study, 2 weekly transcutaneous immunizations with dmLT adjuvant, day 18 after challenge, adjuvant only 2.8, 0 to 4+ scale): 1.5 | bacterial load within remaining biomass (NTHI strain 86-028NP; first study, homogenized biomass cultured on chocolate agar, vs adjuvant alone, FIG. 10B): statistically significant reduction of bacterial load | immune response to immunization (NTHI strain 86-028NP; [4]): strong local and systemic immune response | secondary sequelae of immunization noted upon necropsy (NTHI strain 86-028NP; [4]): no animal presented with obvious secondary sequelae | resolution of experimental otitis media (NTHI strain 86-028NP; in vivo): eradicating experimental otitis media significantly earlier than controls | mean residual middle ear biomass score (NTHI strain 86-028NP; second study, TCI, 10 μg with 10 μg dmLT, adjuvant alone 2.2, 0 to 4+ scale, FIG. 12): 0.9 | reciprocal titer versus isolated IHF by ELISA (IHF; SQ immunization 10 μg with MPL, pre-immune reciprocal titers 100): 8000 | antibodies recognizing IHF by Western blot (IHF; SQ immunization with MPL, FIG. 13): strong immune response to isolated IHF | binding of dsDNA (reduced mobility) (dsDNA): bound dsDNA

CC1(C)S[C@@H]2[C@H](NC(=O)[C@H](N)c3ccc(O)cc3)C(=O)N2[C@H]1C(=O)O [amoxicillin]
bacterial cell death in biofilm (vital dye, FIG. 14C) (NTHI biofilms; [5]): limited bacterial cell death | effect on architecture/height of pre-formed NTHI biofilm (FIG. 14C) (NTHI biofilms; [5]): no measurable effect on the architecture

DNase
effect on pre-formed NTHI biofilm (FIG. 14A) (NTHI biofilms; DNase at sub-optimal concentration, anti-IHF 1:200 dilution): marginal effect

FLEEIRLSLESGQDVKLSGF (listed as Haemophilus influenzae) [A3, amino acids 31 to 50 of IHF]
immune recognition of 20-mer peptides [2]: greatest recognition

B1: TRL1338: antibody, HC SEQ ID NO: 445, LC SEQ ID NO: 446 (antibody, V domains shown)
VH: QVQLTLRESGPTLVKPTQTLTLTCTFSGFSLSTNGVGVGWIRQPPGKALEWLAIIYWDDDKRYSPSLKSRLTITKDTSKNQVVLTLTNMDPVDTGTYYCAHILGASNYWTGYLRYYFDYWGQGTLVTVST
VL: DIEMTQSPSVSVSPGQTARITCSGEPLAKQYAYWYQQKSGQAPVVVIYKDTERPSGIPERFSGSSSGTTVTLTISGVQAEDEADYHCESGDSSGTYPVFGGGTKLTVL
binding for fragment VPAFKAGKALKDAVK (Staphylococcus aureus HU; SEQ ID NO: 456): high affinity binding

B2: TRL1330: antibody, HC SEQ ID NO: 439, LC SEQ ID NO: 440 (antibody, V domains shown)
VH: QVQLVESGTEVKNPGASVKVSCTASGYKFDEYGVSWVRQSPGQGLEWMGWISVYNGKTNYSQNFQGRLTLTTETSTDTAYMELTSLRPDDTAVYYCATDKNWFDPWGPGTLVTVSS
VL: DIVLTQSPSASGSPGQSITISCTGTNTDYNYVSWYQHHPGKAPKVIIYDVKKRPSGVPSRFSGSRSGNTATLTVSGLQTEDEADYYCVSYADNNHYVFGSGTKVTVL
binding for fragment […] (Staphylococcus aureus HU; SEQ ID NO: 455): high affinity binding

B3: TRL295: antibody, HC SEQ ID NO: 413, LC SEQ ID NO: 414 (antibody, V domains shown)
VH: QVQLVESGGGLVQPGGSLRLSCAASGFPFSSYAMSWVRQAPGKGLEWVSAISGNGADSYYADSVKGRFTTSRDKSKNTVYLQMNRLRAEDTAVYYCAKDMRRYHYDSSGLHFWGQGTLVTVSS
VL: DIELTQAPSVSVYPGQTARITCSGDALPKQYAYWYQQKPGQAPVVVIYKDSERPSGISERFSGSSSGTTVTLTISGVQAGDEADYYCQSVDTSVSYYVVFGGGTKLTVL
epitope bound [3]: bind to residues 61-80

From patent US11274144B2, “Compositions and methods for the removal of biofilms” (priority 2013, dated 2022)
